Consider 27 compounds from US7928139B2 (Amgen Inc., priority 2006, dated 2011).

The experiment addresses HIF PHD2 (Homo sapiens, UniProt Q9GZT9). As to the kind of experiment: PHD2 inhibition assay (TR-FRET, VCB-Eu detection of hydroxylated P564-HIF1α peptide). The class given is biochemical. Particulars: 2 nM PHD2, 100 nM P564-HIF1α peptide, 0.25 μM 2-oxoglutarate, 100 μM FeCl2, 2 mM ascorbic acid. On the procedure: Inhibition of HIF PHD2 activity was quantified utilizing the TR-FRET technology. HIF PHD2 catalyzes a hydroxyl modification on the proline residue of the P564-HIF1α peptide substrate (Biotin-DLEMLAPYIPMDDDFQL (SEQ ID NO: 7)) resulting in recognition and binding of the europylated Von Hippel-Lindau protein (pVHL), elongin B and elongin C heterotrimeric (VCB-Eu) complex.
The PHD2 inhibition assay was executed by addition of freshly dissolved FeCl2 to 178.57 μM (100 μM final concentration) in PHD2 Reaction Buffer containing 30 mM MES, pH 6, 10 mM NaCl, 0.25% Brij-35, 0.01% BSA, and 1% DMSO. 28 μL of the iron solution and 2 μL of inhibitor compounds serially diluted in 100% DMSO (5% DMSO final) were added to black polypropylene 96-well microtiter plates. To that, 10 μL of 10 nM PHD2 (2 nM final) was added to all wells of the plate except for the 8 wells of column 12 (LO control), and allowed to incubate at room temperature on the shaker for one hour. Column 6 was the HI control containing PHD2 enzyme and 5% DMSO vehicle, but no inhibitor compound. To initiate the PHD2 enzymatic reaction, 10 μL of a solution containing 500 nM P564-HIF1α peptide (100 nM final), 10 mM ascorbic acid (2 mM final), and 1.25 μM 2-oxoglutarate (α-ketoglutarate; 0.25 μM final) in PHD2 Reaction Buffer was added to all wells of the plate and allowed to incubate on the shaker at room temperature for one hour.
The reaction was terminated by addition of 25 μL TR-FRET Buffer (50 mM TRIS-HCl, pH 9, 100 mM NaCl, 0.05% BSA, and 0.5% Tween-20) containing 150 mM succinate (product inhibitor; 50 mM final), 75 nM streptavidin-APC (25 nM final), and 7.5 nM VCB-Eu (2.5 nM final). The TR-FRET detection reagents were placed on a shaker for 1 hour to reach binding equilibrium before reading on the Discovery platform (PerkinElmer). Europium is excited at 315 nm and phosphoresces at 615 nm with a large Stoke's shift. APC, in turn, emits at 655 nm upon excitation at 615 nm. The TR-FRET signal is measured as the ratio of the APC 655 nm signal divided by the internal europium reference 615 nm emission signal.
The POC (percentage of control) was determined by comparing the signal from hydroxylated peptide substrate in the enzyme reaction containing inhibitor compound with that from PHD2 enzyme with DMSO vehicle alone (HI control), and no enzyme (LO control). POC was calculated using the formula: % control (POC)=(cpd−average LO)/(average HI−average LO)*100. Data (consisting of POC and inhibitor concentration in μM) was fitted to a 4-parameter equation (y=A+((B−A)/(1+((x/C)^D))), where A is the minimum y (POC) value, B is the maximum y (POC), C is the x (cpd concentration) at the point of inflection and D is the slope factor) using a Levenburg-Marquardt non-linear regression algorithm.
(TR-FRET usually uses a lanthanide donor and a delayed reading to cut background.)

Sequence of HIF PHD2 (Q9GZT9 whole entry): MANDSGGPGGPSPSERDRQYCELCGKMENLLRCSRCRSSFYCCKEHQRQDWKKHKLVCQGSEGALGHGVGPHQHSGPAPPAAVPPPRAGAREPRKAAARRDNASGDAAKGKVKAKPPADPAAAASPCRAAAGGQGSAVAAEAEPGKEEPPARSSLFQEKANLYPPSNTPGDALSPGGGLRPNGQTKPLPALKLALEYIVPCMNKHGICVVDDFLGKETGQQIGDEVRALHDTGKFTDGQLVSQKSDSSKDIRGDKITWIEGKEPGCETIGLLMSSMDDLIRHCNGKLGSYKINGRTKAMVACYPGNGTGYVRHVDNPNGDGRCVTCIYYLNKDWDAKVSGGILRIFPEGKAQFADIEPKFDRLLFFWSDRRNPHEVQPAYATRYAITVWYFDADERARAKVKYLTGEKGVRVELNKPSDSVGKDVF

As for `C[C@H](NC(=O)C1=C(O)c2ccc(Br)cc2C(C)(C)C1=O)C(=O)O` [Example 50, N-((7-Bromo-4-hydroxy-1,1-dimethyl-2-oxo-naphthalen-3-yl)carbonyl)-L-alanine], the IC50 (usually the concentration at which inhibition is half-maximal) fell in the range of 100 to 500 nM.

Compound `CC1(C)C(=O)C(C(=O)NCC(=O)O)=C(O)c2ccc(-c3cccnc3)cc21` [Example 51, N-((7-(3-Pyridyl)-4-hydroxy-1,1-dimethyl-2-oxo-naphthalene-3-yl)carbonyl)glycine] displayed a half-maximal inhibitory concentration (IC50) of less than 100 nM.

`CC1(C)C(=O)C(C(=O)NCC(=O)O)=C(O)c2ccc(-c3ccccc3)cc21` [Example 52, N-((7-Phenyl-4-hydroxy-1,1-dimethyl-2-oxo-naphthalen-3-yl)carbonyl)glycine] yielded an IC50 of 100 to 500 nM.

As for `CC1(C)C(=O)C(C(=O)NCC(=O)O)=C(O)c2ccc(Br)cc21` [Example 53, N-((7-Bromo-4-hydroxy-1,1-dimethyl-2-oxo-naphthalen-3-yl)carbonyl)glycine], the 50% inhibitory concentration (IC50) is less than 100 nM.

`CC(C)(NC(=O)C1=C(O)c2cc(Cl)ccc2C2(CCOCC2)C1=O)C(=O)O` [Example 54, N-((6-Chloro-4-hydroxy-2-oxo-2′,3′,5′,6′-tetrahydro-spiro[naphthalene-1,4′-pyran]-3-yl)carbonyl)-2-methylalanine] came in with an IC50 greater than 10000 nM.

`C[C@H](NC(=O)C1=C(O)c2cc(Cl)ccc2C2(CCOCC2)C1=O)C(=O)O` [Example 55, N-((6-Chloro-4-hydroxy-2-oxo-2′,3′,5′,6′-tetrahydro-spiro[naphthalene-1,4′-pyran]-3-yl)carbonyl)-L-alanine] yielded an IC50 of 100 to 500 nM.

For `C[C@@H](NC(=O)C1=C(O)c2cc(Cl)ccc2C2(CCOCC2)C1=O)C(=O)O` [Example 56, N-((6-Chloro-4-hydroxy-2-oxo-2′,3′,5′,6′-tetrahydro-spiro[naphthalene-1,4′-pyran]-3-yl)carbonyl)-D-alanine], the half-maximal inhibitory concentration (IC50) is greater than 10000 nM.

`CC1(C)C(=O)C(C(=O)NCC(=O)O)=C(O)c2cc(Cl)cc(F)c21` [Example 57, N-((6-Chloro-8-fluoro-4-hydroxy-1,1-dimethyl-2-oxo-naphthalen-3-yl)carbonyl)glycine] displayed an IC50 of less than 100 nM.

On to `O=C(O)CNC(=O)C1=C(O)c2cc(F)c(F)cc2C2(CCOCC2)C1=O` [Example 58, N-((6,7-Difluoro-4-hydroxy-2-oxo-2′,3′,5′,6′-tetrahydro-spiro[naphthalene-1,4′-pyran]-3-yl)carbonyl)glycine], for which the concentration for half-maximal inhibition (IC50) is less than 100 nM.

Compound `CC1(C)C(=O)C(C(=O)NCC(=O)O)=C(O)c2cc(F)c(F)cc21` [Example 59, N-((6,7-Difluoro-4-hydroxy-1,1-dimethyl-2-oxo-naphthalen-3-yl)carbonyl)glycine] came in with an IC50 of less than 100 nM.

As for `O=C(O)CNC(=O)C1=C(O)c2cc(Cl)ccc2C2(CCCCC2)C1=O` [Example 60, N-((6′-Chloro-4′-hydroxy-2′-oxo-spiro[cyclohexane-1,1′-naphthalen]-3′-yl)carbonyl)glycine], the IC50 was 100 to 500 nM.

As for `Cc1ccc2c(c1)C(O)=C(C(=O)NCC(=O)O)C(=O)C2(C)C` [Example 61, N-((6-Methyl-4-hydroxy-1,1-dimethyl-2-oxo-naphthalen-3-yl)carbonyl)glycine], the half-inhibitory concentration (IC50) is less than 100 nM.

In turn, `O=C(O)CNC(=O)C1=C(O)c2cc(Cl)c(Cl)cc2C2(CCOCC2)C1=O` [Example 62, N-((6,7-Dichloro-4-hydroxy-2-oxo-2′,3′,5′,6′-tetrahydro-spiro[naphthalene-1,4′-pyran]-3-yl)carbonyl)glycine] gave an IC50 of less than 100 nM.

`CC1(C)C(=O)C(C(=O)NCC(=O)O)=C(O)c2ccccc21` [Example 63, N-((4-Hydroxy-1,1-dimethyl-2-oxo-naphthalen-3-yl)carbonyl)glycine] gave a half-maximal inhibitory concentration (IC50) of less than 100 nM.

`CC1(C)C(=O)C(C(=O)NCC(=O)O)=C(O)c2cc(Cl)c(Cl)cc21` [Example 64, N-((6,7-Dichloro-4-hydroxy-1,1-dimethyl-2-oxo-naphthalen-3-yl)carbonyl)glycine]: the IC50 was less than 100 nM.

`Cc1ccccc1-c1ccc2c(c1)C(O)=C(C(=O)NCC(=O)O)C(=O)C2(C)C` [Example 65, N-((6-(2-Methylphenyl)-4-hydroxy-1,1-dimethyl-2-oxo-naphthalen-3-yl)carbonyl)glycine] gave a half-inhibitory concentration (IC50) of 500 to 1000 nM.

`C[C@H](NC(=O)C1=C(O)c2cc(Cl)ccc2C(C)(C)C1=O)C(=O)O` [Example 66, N-((6-Chloro-4-hydroxy-1,1-dimethyl-2-oxo-naphthalen-3-yl)carbonyl)-L-alanine] showed a half-maximal inhibitory concentration (IC50) of 100 to 500 nM.

As for `O=C(O)CNC(=O)C1=C(O)c2cc(-c3ccccc3)ccc2C2(CCCC2)C1=O` [Example 67, N-((4′-Hydroxy-2′-oxo-6′-phenyl-spiro[cyclopentane-1,1′-naphthalen]-3′-yl)carbonyl)glycine], the IC50 was in the range of 1000 to 10000 nM.

Take `CC1(C)C(=O)C(C(=O)NCC(=O)O)=C(O)c2cc(-c3ccccc3)ccc21` [Example 68, N-((6-Phenyl-4-hydroxy-1,1-dimethyl-2-oxo-naphthalen-3-yl)carbonyl)glycine]: the IC50 fell in the range of 500 to 1000 nM.

`O=C(O)CNC(=O)C1=C(O)c2ccccc2C2(CCN(Cc3ccccc3)CC2)C1=O` [Example 69, N-((4-Hydroxy-2-oxo-2′,3′,5′,6′-tetrahydro-N-benzyl-spiro[naphthalene-1,4′-piperidine]-3-yl)carbonyl)glycine] yielded an IC50 of less than 100 nM.

For `O=C(O)CNC(=O)C1=C(O)c2ccccc2C2(CCNCC2)C1=O` [Example 70, N-((4-Hydroxy-2-oxo-2′,3′,5′,6′-tetrahydro-spiro[naphthalene-1,4′-piperidine]-3-yl)carbonyl)glycine], the IC50 is 100 to 500 nM.

`O=C(O)CNC(=O)C1=C(O)c2cc(Cl)ccc2C2(CCN(Cc3ccccc3)CC2)C1=O` [Example 71, N-((6-Chloro-4-hydroxy-2-oxo-2′,3′,5′,6′-tetrahydro-N-benzyl-spiro[naphthalene-1,4′-piperidine]-3-yl)carbonyl)glycine] displayed a half-inhibitory concentration (IC50) of less than 100 nM.

For the compound `O=C(O)CNC(=O)C1=C(O)c2cc(Cl)ccc2C2(CCCO2)C1=O` (stereo not drawn) [Example 72, N-((6′-Chloro-4′-hydroxy-2′-oxo-4,5-dihydro-spiro[furan-2,1′-naphthalen]-3′-yl)carbonyl)glycine], the IC50 is less than 100 nM.

For `O=C(O)CNC(=O)C1=C(O)c2cc(Cl)ccc2[C@@]2(CCCO2)C1=O` [Example 73, N-(((2S)-6′-Chloro-4′-hydroxy-2′-oxo-4,5-dihydro-spiro[furan-2,1′-naphthalen]-3′-yl)carbonyl)glycine], the concentration for half-maximal inhibition (IC50) was less than 100 nM.

Consider `O=C(O)CNC(=O)C1=C(O)c2cc(Cl)ccc2[C@]2(CCCO2)C1=O` [Example 74, N-(((2R)-6′-Chloro-4′-hydroxy-2′-oxo-4,5-dihydro-spiro[furan-2,1′-naphthalen]-3′-yl)carbonyl)glycine], for which the IC50 fell in the range of 100 to 500 nM.

For the compound `O=C(O)CNC(=O)C1=C(O)c2cc(Cl)ccc2C2(CCCOC2)C1=O` (stereo not drawn) [Example 75, N-((6-Chloro-4-hydroxy-2-oxo-5′,6′-dihydro-spiro[naphthalene-1,3′-pyran]-3-yl)carbonyl)glycine], the IC50 is less than 100 nM.

`O=C(O)CNC(=O)C1=C(O)c2cc(Cl)ccc2[C@]2(CCCOC2)C1=O` [Example 76, N-(((1S)-6-Chloro-4-hydroxy-2-oxo-5′,6′-dihydro-spiro[naphthalene-1,3′-pyran]-3-yl)carbonyl)glycine]: the concentration for half-maximal inhibition (IC50) lay in the range of 100 to 500 nM.
